{
  "source": "patent US5312919A",
  "about": "“Photooxidation products and derivatives thereof of merocyanine-540, their preparation and uses” (priority 1992, dated 1994)",
  "key": {"[1]": {"tested_on": "human immunodeficiency virus (HIV-1)", "assay": "Inactivation of cell free human immunodeficiency virus (viability of MT-4 target cells, MTT assay)", "assay_type": "cell-based", "description": "(§1) Preactivated MC 540 is abbreviated as pMC 540. […] 52: 831-38 (1990); and T. Mosmann, J. Immulog. Methods 65: 55-63 (1983).\nCell free human immunodeficiency virus (HIV-1) was either left untreated or treated with indicated doses of Merocil or Merodantoin for one hour at 37° C. and added to MT-4 target cells. After 4 hour incubation at 37° C., the cells were washed three times and further incubated in drug free fresh growth medium (complete RPMI-1640) at 37° C. for 4 days. On day four, 50% of the culture supernatant was replaced with fresh growth medium to prevent cell death due to possible nutrient depletion. The viability of the cell was determined on day 11 by MTT assay. […] The viability of the MT-4 cells was not affected by Merocil or Merodantoin under the experimental conditions described above."}, "[2]": {"tested_on": "DU 145 (prostate, carcinoma, human)", "assay": "Inhibition of cell proliferation, DU 145 (MTT assay)", "assay_type": "cell-based", "conditions": "for inhibition at 1.56 µg/mL / inhibition at 3.13 µg/mL / inhibition at 6.25 µg/mL / inhibition at 12.5 µg/mL: read-out: % inhibition of cell proliferation", "description": "as §1\nEach cell type (1×10^6 cells/ml; in triplicate) was treated with indicated concentrations of merocil or merodantoin. After overnight (20 hr.) or 5 day incubation periods, the cell viability was determined by MTT assay and calculated as a percentage of untreated controls. The toxicity in vehicle only (cremophor EL) controls was not detectable at highest dose tested."}},
  "note": "Where two headings read alike, the source gives them in different places.",
  "data": [
    {"smiles": "CCCCN1C(=O)C(=O)N(CCCC)C1=S", "note": "[Merodantoin, N,N'-Dibutyl-2-thio-4,5-imidazolindion]", "values": [
      {"measurement": "inactivation of cell free HIV", "setting": "[1]; 75 μg/ml dose", "value": "virtually complete inactivation of the virus"},
      {"measurement": "viability at 25 µg/mL", "setting": "[1]; Human immunodeficiency virus 1, MT4, 264 h, MT-4 cells + HIV treated with 25 μg/ml, one hour 37° C., day 11, untreated HIV-1 36.75", "value": 73.5, "unit": "%"},
      {"measurement": "viability at 50 µg/mL", "setting": "[1]; Human immunodeficiency virus 1, MT4, 264 h, MT-4 cells + HIV treated with 50 μg/ml, one hour 37° C., day 11, untreated HIV-1 36.75", "value": 94.3, "unit": "%"},
      {"measurement": "viability at 75 µg/mL", "setting": "[1]; Human immunodeficiency virus 1, MT4, 264 h, MT-4 cells + HIV treated with 75 μg/ml, one hour 37° C., day 11, untreated HIV-1 36.75", "value": 102, "unit": "%"},
      {"measurement": "inactivating human immunodeficiency virus (HIV-1)", "setting": "[1]; conclusion", "value": "effective"},
      {"measurement": "inhibition at 1.56 µg/mL", "setting": "[2]; DU-145, 1.56 μg/ml, 20 hr.", "value": 0, "unit": "%"},
      {"measurement": "inhibition at 3.13 µg/mL", "setting": "[2]; DU-145, 3.13 μg/ml, 20 hr.", "value": 1, "unit": "%"},
      {"measurement": "inhibition at 6.25 µg/mL", "setting": "[2]; DU-145, 6.25 μg/ml, 20 hr.", "value": 8, "unit": "%"},
      {"measurement": "inhibition at 12.5 µg/mL", "setting": "[2]; DU-145, 12.5 μg/ml, 20 hr.", "value": 9, "unit": "%"},
      {"measurement": "inhibition at 25 µg/mL", "setting": "[2]; DU-145, 25.0 μg/ml, 20 hr.", "value": 11, "unit": "%"},
      {"measurement": "inhibition at 1.56 µg/mL", "setting": "[2]; DU-145, 120 h, 1.56 μg/ml, 5 days", "value": 54, "unit": "%"},
      {"measurement": "inhibition at 3.13 µg/mL", "setting": "[2]; DU-145, 120 h, 3.13 μg/ml, 5 days", "value": 85, "unit": "%"},
      {"measurement": "inhibition at 6.25 µg/mL", "setting": "[2]; DU-145, 120 h, 6.25 μg/ml, 5 days", "value": 99, "unit": "%"},
      {"measurement": "inhibition at 12.5 µg/mL", "setting": "[2]; DU-145, 120 h, 12.5 μg/ml, 5 days", "value": 100, "unit": "%"},
      {"measurement": "inhibition at 25 µg/mL", "setting": "[2]; DU-145, 120 h, 25.0 μg/ml, 5 days", "value": 100, "unit": "%"}
    ]}
  ]
}
